This experiment concerns the target Syk (356-635 amino acids) catalytic domain (Homo sapiens (Human), UniProt P43405). Briefly: Inhibition of enzymatic Syk kinase activity (radiometric). The following applies: read-out: IC50 Syk. Type of experiment: biochemical. From the text: The objective of this assay was to examine by radiometric method the ability of compounds to inhibit Syk kinase enzyme. Syk is capable of phosphorylating substrates such as VAV, LAT, SLP-76, which in turn activate MAPK, PLCγ signaling pathways. […] This in vitro assay tests the ability of syk to phosphorylate a substrate peptide in the presence of ATP. By using a radio-labeled form of ATP, it is possible to measure the amount of phosphorylation of the substrate. The enzyme transfers a radio-labeled phosphate group from γ32 P labeled ATP to pG4T. Briefly the enzyme was incubated with substrate, radio-labeled & cold ATP and substrate in buffer with or without compounds. At the end of the reaction, the reaction mixture was transferred on to a Multiscreen filter plate and unreacted γ^32P ATP was washed off. The filter plate was dried and the radioactivity was measured on a scintillation counter to estimate the incorporated radioactivity on the substrate. The percent inhibition of activity of the enzyme was calculated by comparing counts in the presence and absence of compounds. […] 2.5 μL of 10% DMSO or compound in 10% DMSO was added to the wells in a 96 well V-bottom plate. Optimized concentration of in-house Syk enzyme (different batches of Syk (356-635) kinase domain) were used at optimized concentrations) ranging from 0.035 ng to 7.5 ng/reaction diluted in assay buffer was added to a total volume of 12.5 μL). Compound and protein were incubated for 30 minutes at room temperature on a plate shaker. Ten μL of a substrate mix containing 100 μM ATP (0.25 μL), γ-P^32-ATP (0.1 μL; 10 μCi/μL), pG4T (0.25 μL; 10 mg/mL) and 1× assay buffer (9.4 μL) was added to all the wells. Samples were incubated at 30° C. for 10 minutes after mixing. The reaction was stopped by the addition of 8N HCl (13 μL) containing 100 mM ATP. Thirty μL of sample was transferred to the center of a 2×2 cm^2 Whatman® P81 chromatography paper. After allowing the sample to dry for one minute, the assay squares were washed 3 times for 5 minutes each in ortho-phosphoric acid (0.5%) and once in acetone. Assay squares were dried for 15 minutes in a 30° C. oven and transferred to 96 well optiplate. Microscint-O® reagent (100 μL, Perkin Elmer) was added to each well, the plate was sealed with Topseal®-A microplates and incubated for 10 minutes at room temperature at very low speed on rocker and the plate was read in the Topcount® NXL instrument. The following calculations were made: Fold induction=radioactivity counts (uncorrected values) in positive control/substrate control.

Broadly, the IC50 is the concentration that gives 50% inhibition. For the compound `COc1cc(Nc2nc(N3CCC(CC#N)CC3)nc3cn[nH]c(=O)c23)cc(OC)c1OC` [Example 326, 2-(1-(5-oxo-4-((3,4,5-trimethoxyphenyl)amino)-5,6-dihydropyrimido[4,5-d]pyridazin-2-yl)piperidin-4-yl) acetonitrile], the half-inhibitory concentration (IC50) was over 100 nM.
As to `N#CCC1CCN(c2nc(Nc3cccc(CO)c3)c3c(=O)[nH]ncc3n2)CC1` [Example 311, 2-(1-(4-((3-(hydroxymethyl)phenyl)amino)-5-oxo-5,6-dihydropyrimido[4,5-d]pyridazin-2-yl)piperidin-4-yl) acetonitrile], the IC50 is over 100 nM.
Next, `N#CCN1CCN(c2nc(Nc3ccc(N4CCC5(CC4)CC5C(=O)O)cc3)c3c(=O)[nH]ncc3n2)CC1` (centres unmarked) [Example 73, 6-(4-((2-(4-(cyanomethyl)piperazin-1-yl)-5-oxo-5,6-dihydropyrimido[4,5-d]pyridazin-4-yl)amino)phenyl)-6-azaspiro[2.5]octane-1-carboxylic acid]: under 100 nM.
As for `O=c1[nH]ncc2nc(N3CCCCCC3)nc(Nc3ccc(N4CCC5(CC4)CC5CO)cc3)c12` (centres unmarked) [Example 258, 2-(azepan-1-yl)-4-((4-(1-(hydroxymethyl)-6-azaspiro[2.5]octan-6-yl)phenyl)amino) pyrimido[4,5-d]pyridazin-5(6H)-one], the figure is under 100 nM; as for `O=C(O)C1CC12CCN(c1ccc(Nc3nc(-c4ccccc4)nc4cn[nH]c(=O)c34)cn1)CC2` (centres unmarked) [Example 137, 6-(5-((5-oxo-2-phenyl-5,6-dihydropyrimido[4,5-d]pyridazin-4-yl)amino)pyridin-2-yl)-6-azaspiro[2.5]octane-1-carboxylic acid], over 100 nM; as for `COc1cccc(-c2nc(Nc3ccc(N4CCC(CC#N)CC4)cc3)c3c(=O)[nH]ncc3n2)c1` [Example 163, 2-(1-(4-((2-(3-methoxyphenyl)-5-oxo-5,6-dihydropyrimido[4,5-d]pyridazin-4-yl)amino)phenyl)piperidin-4-yl)acetonitrile], over 100 nM.
Next, `O=c1[nH]ncc2nc(N3CCCCCC3)nc(Nc3cccc(CO)c3)c12` [Example 310, 2-(azepan-1-yl)-4-((3-(hydroxymethyl)phenyl)amino)pyrimido[4,5-d]pyridazin-5(6H)-one]: over 100 nM; `N#CCN1CCN(c2nc(Nc3ccc(OCCN4CCNCC4)cc3)c3c(=O)[nH]ncc3n2)CC1` [Example 230, 2-(4-(5-oxo-4-((4-(2-(piperazin-1-yl)ethoxy)phenyl)amino)-5,6-dihydropyrimido[4,5-d]pyridazin-2-yl)piperazin-1-yl)acetonitrile]: over 100 nM; `CN1CCN(CCn2cc(Nc3nc(-c4ccccc4)nc4cn[nH]c(=O)c34)cn2)CC1` [Example 64, 4-((1-(2-(4-methylpiperazin-1-yl)ethyl)-1H-pyrazol-4-yl)amino)-2-phenylpyrimido[4,5-d]pyridazin-5(6H)-one]: over 100 nM.
Regarding `COC(=O)c1ccc(-c2nc(Nc3ccc(N4CCOCC4)cc3)c3c(=O)[nH]ncc3n2)cc1` [Example 29, methyl 4-(4-(4-morpholinophenylamino)-5-oxo-5,6-dihydropyrimido[4,5-d]pyridazin-2-yl)benzoate], the IC50 was over 100 nM.
As for `O=c1[nH]ncc2nc(N3CCCCCC3)nc(Nc3ccc(OCCCO)cc3)c12` [Example 296, 2-(azepan-1-yl)-4-((4-(3-hydroxypropoxy)phenyl)amino)pyrimido[4,5-d]pyridazin-5(6H)-one], the figure is under 100 nM; as for `COc1ccc(Nc2nc(N3CCCCCC3)nc3cn[nH]c(=O)c23)cc1OC` [Example 318, 2-(azepan-1-yl)-4-((3,4-dimethoxyphenyl)amino)pyrimido[4,5-d]pyridazin-5(6H)-one], over 100 nM.
Next, `N#CCC1CCN(c2nc(Nc3ccc(-c4nnn(CC(=O)O)n4)cc3)c3c(=O)[nH]ncc3n2)CC1` [Example 241, 2-(5-(4-((2-(4-(cyanomethyl)piperidin-1-yl)-5-oxo-5,6-dihydropyrimido[4,5-d]pyridazin-4-yl)amino)phenyl)-2H-tetrazol-2-yl)acetic acid]: over 100 nM.
Next, `CC(C)(Oc1ccc(Nc2nc(N3CCC(CC#N)CC3)nc3cn[nH]c(=O)c23)cc1)C(=O)O` [Example 317, 2-(4-((2-(4-(cyanomethyl)piperidin-1-yl)-5-oxo-5,6-dihydropyrimido[4,5-d]pyridazin-4-yl)amino)phenoxy)-2-methylpropanoic acid]: over 100 nM; `COc1cccc(Nc2nc(N3CCC(CC#N)CC3)nc3cn[nH]c(=O)c23)c1` [Example 321, 2-(1-(4-((3-methoxyphenyl)amino)-5-oxo-5,6-dihydropyrimido[4,5-d]pyridazin-2-yl)piperidin-4-yl)acetonitrile]: over 100 nM.
As to `O=C(O)C1CC12CCN(c1ccc(Nc3nc(N4CCOCC4)nc4cn[nH]c(=O)c34)cc1)CC2` (centres unmarked) [Example 42, 6-(4-((2-morpholino-5-oxo-5,6-dihydropyrimido[4,5-d]pyridazin-4-yl)amino)phenyl)-6-azaspiro[2.5]octane-1-carboxylic acid], the IC50 was under 100 nM.
For `O=c1[nH]ncc2nc(N3CCOCC3)nc(Nc3ccc(OCCN4CCNCC4)cc3)c12` [Example 176, 2-morpholino-4-((4-(2-(piperazin-1-yl)ethoxy)phenyl)amino)pyrimido[4,5-d]pyridazin-5(6H)-one], the IC50 was over 100 nM.
Next, `CCOC(=O)C1CC12CCN(c1ccc(Nc3nc(-c4ccccc4)nc4cn[nH]c(=O)c34)cc1)CC2` (centres unmarked) [Example 20, ethyl 6-(4-(5-oxo-2-phenyl-5,6-dihydropyrimido[4,5-d]pyridazin-4-ylamino)phenyl)-6-azaspiro[2.5]octane-1-carboxylate]: over 100 nM; `O=c1[nH]ncc2nc(-c3ccccc3)nc(Nc3ccc(N4CCC5(CC4)COC5)cc3)c12` [Example 17, 4-(4-(2-oxa-7-azaspiro[3.5]nonan-7-yl)phenylamino)-2-phenylpyrimido[4,5-d]pyridazin-5(6H)-one]: over 100 nM.
Next, `N#CCC1CCN(c2ccc(Nc3nc(-c4ccccc4)nc4cn[nH]c(=O)c34)cc2)CC1` [Example 82, 2-(1-(4-((5-oxo-2-phenyl-5,6-dihydropyrimido[4,5-d]pyridazin-4-yl)amino)phenyl)piperidin-4-yl)acetonitrile]: over 100 nM; `CCN1CCN(CCn2cc(Nc3nc(-c4ccccc4)nc4cn[nH]c(=O)c34)cn2)CC1` [Example 65, 4-((1-(2-(4-ethylpiperazin-1-yl)ethyl)-1H-pyrazol-4-yl)amino)-2-phenylpyrimido[4,5-d]pyridazin-5(6H)-one]: over 100 nM; `O=c1[nH]ncc2nc(N3CCCCCC3)nc(Nc3ccc(N4CCC(CCF)CC4)cc3)c12` [Example 298, 2-(azepan-1-yl)-4-((4-(4-(2-fluoroethyl)piperidin-1-yl)phenyl)amino) pyrimido[4,5-d]pyridazin-5-(6H)-one]: over 100 nM.
As for `O=C(O)C1CC12CCN(Cc1ccc(Nc3nc(-c4ccccc4)nc4cn[nH]c(=O)c34)cc1)CC2` (centres unmarked) [Example 21, 6-(4-(5-oxo-2-phenyl-5,6-dihydropyrimido[4,5-d]pyridazin-4-ylamino)benzyl)-6-azaspiro[2.5]octane-1-carboxylic acid], the figure is over 100 nM.

The values above are taken from patent US10183944B2 (Asana Biosciences, LLC, priority 2011, dated 2019).
